US20050075282A1, “Materials and methods for inhibiting the development of epilepsy” (priority 2003, published 2005)
Several values for one entry are separate records, joined by “and”; a condition that tells them apart may be missing. Equal values may be shown once.

What was measured:
AMPAR = test: Whole cell voltage clamp of isolated DGCs, response to kainate + cyclothiazide, after in vivo HDAC inhibitor treatment; set-up: species or system rats
HDAC [1] = details: HDAC inhibitors in rats; cited from earlier work
[2] = tested on: rats post pilocarpine-induced status epilepticus; test: Chronic epilepsy monitoring (video) after pilocarpine-induced SE; format: in vivo; details: TSA injected three times, 2 hr, 6 hr and 24 hr post SE; seven weeks monitoring; vs vehicle
Protocol: Trichostatin A (TSA) administration. TSA was administered in the lateral ventricle {−0.8 mm A-P; 1.5 LAT; 3.2 DOWN (Paxinos and Watson 1982)} one hour prior to pilocarpine injection to induce SE. The cannula guide had been previously implanted using stereotaxic surgery two weeks prior to experiment to allow animals properly recovery. TSA (5 μl) was delivered via tubing connected to a pump at a concentration of 5 μg/ml (vehicle, 0.9% saline) at a rate of 1 μl/min for 5 minutes through 29-gauge tubing attached to the cannula. Successful delivery of TSA was verified by histological examination of cannula position and a moving mark inside the tubing. In additional studies (FIGS. 5 and 6), TSA was administered I.P., 2, 6, and 24 hrs post SE.
Pilocarpine-induced status epilepticus. Rats were injected with (−) scopolamine methyl nitrate (1 mg/kg body weight, s.c.) 30 min prior to pilocarpine hydrochloride (405 mg/kg body weight, s.c.). Controls received a sub-convulsive dosage of pilocarpine (40 mg/kg, s.c.). After one hour of SE, diazepam was used to stop SE.
Chronic epilepsy monitoring in TSA treatment. […] This effect lasted for at least 5-7 days, during which time animals had no behavioral seizures (latent period). Animals sequentially developed spontaneous seizures (epilepsy). […] Animals were video monitored for 7 weeks post SE, and the frequency and severity of seizures was quantified.

HDAC [3] = details: cited from earlier work; for IC50: read-out: IC50 (HDAC inhibition)
NMDAR = test: Whole cell voltage clamp of isolated DGCs, response to NMDA, after in vivo HDAC inhibitor treatment; set-up: species or system rats; details: for increase of DGC NMDAR current densities in control rats: treated control vs control (VPA) or control+vehicle (TSA)
GABAR = test: Whole cell voltage clamp of isolated dentate granule cells (DGCs), response to GABA, after in vivo HDAC inhibitor treatment; set-up: species or system rats
[4] = target: purified nuclear histone deacetylase; details: Calf thymus, reference 2; cited from earlier work
HDAC (293T cells) = tested on: T1, HDAC (293T cells); details: 293T cells-HDAC assay; reference 6; cited from earlier work
T1 construct: IC50; other: 293T cells-HDAC assay

[5] = tested on: HeLa cell nuclear extract HDACs; details: Enhances histone acetylation in HeLa cell nuclear extract; reference 4; cited from earlier work
[6] = DGCs 1 Wk post SE, TSA in the lateral ventricle
[7] = control rats, TSA in the lateral ventricle
[8] = DGCs 1 Wk post SE, VPA study (FIG. 2B)
[9] = control rats, VPA in drinking water

In the case of `CC(/C=C/C(=O)NO)=C\[C@@H](C)C(=O)c1ccc(N(C)C)cc1` [TSA, Trichostatin A], the “increase of AMPAR current densities in control rats” value (AMPAR; Control+TSA vs Control+vehicle) is reported as 43.8%, the “effect on reduced AMPAR function / current densities” value (AMPAR; DGCs 1 Wk post SE) is reported as “totally prevented” and the “AMPAR Charge transfer density” value (AMPAR; [6]) is reported as 703.3 ± 49.9 (n = 33) (msec) × (nA)/(pF). For the same compound, the “AMPAR Charge transfer density” value (AMPAR; [7]) was 907.6 ± 57.7 (n = 41) (msec) × (nA)/(pF), the EC50 (HDAC [1]) was 0.05 to 0.5 µM and the “reduction of average spontaneous seizure frequency” value [2] was “more than 70%”. For the same compound, the “IC50 / working range (HDAC inhibition)” value (HDAC [3]; in vitro) was “nM affinity range”, the “effect on NMDAR current density” value (NMDAR; DGCs 1 Wk post SE, TSA i.p. post SE (FIG. 6)) was “no significant effect” and the “NMDAR Charge transfer density” value (NMDAR; [6]) was 153.7 ± 16.6 (n = 31) (msec) × (nA)/(pF). The “NMDAR Current density” value (NMDAR; [6]) was 117.3±16.0 pA/pF and 117.3 ± 16.0 (n = 31) pA/pF, the “NMDAR Desensitization %” value (NMDAR; [6]) was 38.5 ± 3.5 (n = 31) % and the “NMDAR Desensitization tau” value (NMDAR; [6]) was 1222.1 ± 173.8 (n = 28) msec. The “NMDAR Charge transfer density” value (NMDAR; [7]) was 196.2 ± 14.4 (n = 39) (msec) × (nA)/(pF), the “NMDAR Desensitization %” value (NMDAR; [7]) was 27.1 ± 2.2 (n = 39) % and the “NMDAR Desensitization tau” value (NMDAR; [7]) was 1262.6 ± 197.5 (n = 37) msec. The “NMDAR Current density” value (NMDAR; control rats, TSA in the lateral ventricle, NMDA 100 μM, Mg-free) was 121.0±9.0 pA/pF and 121.0 ± 9.0 (n = 39) pA/pF, the “increase of DGC NMDAR current densities in control rats” value (NMDAR) was 83.1% and the GABAR Current density (GABAR; DGCs 1 Wk post SE, 1-hr post SE TSA i.p. injection (FIG. 6)) was 235.1±62.3 pA/pF. For the same compound, the “GABAR Charge transfer density” value (GABAR; [6]) was 185.9 ± 18.4 (n = 30) (msec) × (nA)/(pF), the “GABAR Desensitization %” value (GABAR; [6]) was 83.1 ± 2.0 (n = 30) % and the “GABAR Current density” value (GABAR; DGCs 1 Wk post SE, TSA in the lateral ventricle one hour prior to pilocarpine, GABA 1 mM) was 225.6±17.3 pA/pF and 225.6 ± 17.3 (n = 32) pA/pF. The “GABAR Charge transfer density” value (GABAR; [7]) was 169.7 ± 14.2 (n = 37) (msec) × (nA)/(pF), the “GABAR Desensitization %” value (GABAR; [7]) was 83.8 ± 1.5 (n = 36) % and the “GABAR Current density” value (GABAR; control rats, TSA in the lateral ventricle, GABA 1 mM) was 217.9±12.8 pA/pF and 217.9 ± 12.8 (n = 36) pA/pF.
For `CCCC(=O)[O-].[Na+]` [Sodium Butyrate, Sodium butyrate], the IC50 [4] is listed as 250 µM, the EC50 (HDAC [1]) is listed as 200 to 500 µM and the IC50 (HDAC [3]) is listed as 1500 µM. For the same compound, the IC50 (HDAC (293T cells)) was 300 to 400 µM.
With `CCCC(CCC)C(N)=O` [VPM, valpromide] the “AMPAR Charge transfer density” value (AMPAR; DGCs 1 Wk post SE) was 615.3 ± 42.3 (n = 27) (msec) × (nA)/(pF), the AMPAR current densities (AMPAR; DGCs 1 Wk post SE, VPA study (FIG. 3)) was 302.5±20.2 pA/pF and the “NMDAR Charge transfer density” value (NMDAR; DGCs 1 Wk post SE) was 180.0 ± 22.4 (n = 26) (msec) × (nA)/(pF). For the same compound, the “NMDAR Desensitization %” value (NMDAR; DGCs 1 Wk post SE) was 46.7 ± 4.5 (n = 25) %, the “NMDAR Desensitization tau” value (NMDAR; DGCs 1 Wk post SE) was 787.8 ± 131.5 (n = 23) Msec and the NMDAR current densities (NMDAR; DGCs 1 Wk post SE, VPA study (FIG. 4)) was 141.1±17.3 pA/pF. For the same compound, the “GABAR Charge transfer density” value (GABAR; DGCs 1 Wk post SE) was 249.5 ± 41.5 (n = 26) (msec) × (nA)/(pF), the “GABAR Desensitization %” value (GABAR; DGCs 1 Wk post SE) was 77.3 ± 2.7 (n = 27) % and the GABAR current densities (GABAR; [8]) was 218.63±33.2 pA/pF. For the same compound, the “GABAR Current density” value (GABAR; DGCs 1 Wk post SE, GABA 1 mM) was 218.6 ± 33.2 (n = 30) Pa/pF.
In the case of `CCCC(CCC)C(=O)[O-].[Na+]` [VPA, 2-propyl-pentanoic acid-sodium salt], the “AMPAR Charge transfer density” value (AMPAR; DGCs 1 Wk post SE) is reported as 459.8 ± 30.8 (n = 66) (msec) × (nA)/(pF), the “effect on reduced AMPAR function / current densities” value (AMPAR; DGCs 1 Wk post SE) is reported as “partially restore” and the “AMPAR Charge transfer density” value (AMPAR; [9]) is reported as 780.4 ± 53.3 (n = 26) (msec) × (nA)/(pF). For the same compound, the EC50 (HDAC [1]) was 300 to 700 µM, the IC50 (HDAC [3]) was 400 µM and the “NMDAR Desensitization %” value (NMDAR; DGCs 1 Wk post SE) was 43.9 ± 2.7 (n = 61) %. For the same compound, the “NMDAR Desensitization tau” value (NMDAR; DGCs 1 Wk post SE) was 768.6 ± 51.1 (n = 51) Msec, the “NMDAR Current density” value (NMDAR; DGCs 1 Wk post SE, NMDA 100 μM, Mg-free) was 74.0 ± 9.5 (n = 62) Pa/pF and the NMDAR current densities (NMDAR; control rats + VPA (FIG. 4)) was 102.1±17.5 pA/pF. The “NMDAR Charge transfer density” value (NMDAR; [9]) was 123.2 ± 18.0 (n = 25) (msec) × (nA)/(pF), the “NMDAR Desensitization %” value (NMDAR; [9]) was 35.6 ± 4.6 (n = 25) % and the “NMDAR Desensitization tau” value (NMDAR; [9]) was 669.8 ± 77.3 (n = 21) Msec. The “increase of DGC NMDAR current densities in control rats” value (NMDAR) was 49.9%, the Ki [5] was 510 µM and the “GABAR Charge transfer density” value (GABAR; DGCs 1 Wk post SE) was 217.0 ± 16.4 (n = 73) (msec) × (nA)/(pF). For the same compound, the “GABAR Desensitization %” value (GABAR; DGCs 1 Wk post SE) was 76.5 ± 2.1 (n = 73) %, the GABAR current densities (GABAR; [8]) was 234.6±12.7 pA/pF and the “GABAR Current density” value (GABAR; DGCs 1 Wk post SE, GABA 1 mM) was 234.6 ± 12.7 (n = 74) Pa/pF. The GABAR current densities (GABAR; control rats + VPA (FIG. 2B)) was 243.04±19.25 pA/pF, the “GABAR Charge transfer density” value (GABAR; [9]) was 239.8 ± 27.8 (n = 22) (msec) × (nA)/(pF) and the “GABAR Current density” value (GABAR; control rats, VPA in drinking water 1.0 g/kg daily, GABA 1 mM) was 243.0 ± 19.3 (n = 22) Pa/pF. The “GABAR Desensitization %” value (GABAR; control rats, VPA in drinking water, 2-second agonist application) was 70.3 ± 4.2 (n = 22) % and the IC50 (HDAC (293T cells)) was 700 to 1000 µM.
